Entries after “also recorded” stand apart in the source; their conditions may differ. Where a name gives a salt, the structure may show the parent alone. Read-outs that look alike come from different tables or passages of the source.
What was measured:
hairless dogs [1] = assay: Skin condition (remission of wrinkles) in old hairless dogs, gross observation and video macroscope; format: in vivo, dog; conditions: 0.2% and 0.02% in PEG
Experimental: (§1) The therapeutic efficacy of neutrophil (leukocyte) elastase inhibitors in “dermal aging” was evaluated in hairless dogs.
(§2) Two adult (old) experimental hairless dogs constructed by cross-breeding of a Mexican hairless dog and a beagle dog were used. Old dogs presenting with age-associated fine “wrinkles” , not observed in young dogs, on the body surface were used as subject animals.
5) Polyethylene glycol (PEG) (solvent control) (PEG was used as the solvent for drugs 1˜4)
(§3) Each drug was applied in one location (a total of 5 locations) on the back (5×5 cm) of each dog. The drug was applied in a dosing volume of about 4 μL/cm^2 once daily (except on Saturdays, Sundays and holidays) for 3 months.
1) Skin condition: Gross observation and observation with a video macroscope

hairless dogs [2] = assay: Skin thickness: thickness of the epidermis (excluding the horny layer) in H-E stained tissue samples of old hairless dogs; format: in vivo, dog; conditions: for Thickness of the epidermis, value after the arrow (after treatment): FK706 0.2% topical once daily for 3 months; for Thickness of the epidermis, value after the arrow (after treatment) / Thickness of the epidermis, value before the arrow (initial): mean±SD
Experimental: as §1, §2, §3

hairless dogs [3] = assay: Histology of biopsy samples from old hairless dogs (van Gieson's stain, Weigert's stain); format: in vivo; conditions: Dog No. 8807, 3 months
Experimental: The therapeutic efficacy of neutrophil (leukocyte) elastase inhibitors in “dermal aging” was evaluated in hairless dogs. Two adult (old) experimental hairless dogs constructed by cross-breeding of a Mexican hairless dog and a beagle dog were used. Old dogs presenting with age-associated fine “wrinkles” , not observed in young dogs, on the body surface were used as subject animals. Each drug was applied in one location (a total of 5 locations) on the back (5×5 cm) of each dog. The drug was applied in a dosing volume of about 4 μL/cm^2 once daily (except on Saturdays, Sundays and holidays) for 3 months. 2) Histology: Observation of histological changes in biopsy samples by H-E (hematoxylin-eosin) stain (general staining) , van Gieson's stain (staining of collagen fiber) and Weigert's stain (staining of elastin fiber)

[4] = qualitative, by solvent, cited from earlier work
[5] = gross observation, dog No. 8807 (10 yr old, male), about 4 μL/cm2 on the back once daily for 3 months
[6] = gross observation, dog No. 8808 (10 yr old, female), about 4 μL/cm2 on the back once daily for 3 months
[7] = observation with a video macroscope, dog No. 8807, once daily for 3 months
[8] = observation with a video macroscope, dog No. 8808, once daily for 3 months

Row | Compound | Order of efficacy in the elimination or remission of wrinkles (hairless dogs [1]; [5]) | Order of efficacy in the elimination or remission of wrinkles (hairless dogs [1]; [6]) | Order of efficacy in the elimination or remission of wrinkles (hairless dogs [1]; [7]) | Order of efficacy in the elimination or remission of wrinkles (hairless dogs [1]; [8]) | Thickness of the epidermis, value after the arrow (after treatment) (hairless dogs [2]; Dog No. 8807) [μm] | Thickness of the epidermis, value before the arrow (initial) (hairless dogs [2]; Dog No. 8807, location treated with FK706 0.2%) [μm] | Thickness of the epidermis, value after the arrow (after treatment) (hairless dogs [2]; Dog No. 8808) [μm] | Thickness of the epidermis, value before the arrow (initial) (hairless dogs [2]; Dog No. 8808, location treated with FK706 0.2%) [μm] | Change in thickness of the epidermis (hairless dogs [2]; location treated with FK706 0.2%, p<0.05 in both Dog 8807 and Dog 8808) | Histological finding, Weigert's stain (elastin fiber) (hairless dogs [3]; topical) | Histological finding, van Gieson's stain (collagen fiber) (hairless dogs [3]; FK706 0.2% topical) | Solubility ([4]; disodium salt) | Solubility ([4]; dipotassium salt)
1 | CC(C)C(NC(=O)[C@@H]1CCCN1C(=O)[C@@H](NC(=O)c1ccc(C(=O)NCC(=O)O)cc1)C(C)C)C(=O)C(F)(F)F (mixture of isomers) [FK706, 3 (RS)-[[4-(carboxymethylaminocarbonyl)phenyl-carbonyl]-L-valyl-L-prolyl]amino-1,1,1-trifluoro-4-methyl-2-oxopentane] | FK706·0.1%>FK706·0.02%>FR134043·0.2%=FR134043·0.02% | FK706·0.2%>FK706·0.02%>FR134043·0.2%=FR134043·0.02% | FK706·0.2%>FK706·0.02%>FR134043·0.2%>FR134043·0.02% | FK706·0.2%=FK706·0.02%>FR134043·0.2%=FR134043 0.02% | 26.8±5.9 | 17.0±1.9 | 42.0±9.0 | 24.6±3.6 | increased significantly | Growth of elastin fibrils (suspected to be oxytalan fiber which is said to disappear as increasing age) was found across the boundary between the epidermis and dermis | Neogenesis of a thin layer of collagen fiber was found across the boundary between the epidermis and dermis |  | 
2 | C/C=C1\NC(=O)C2NC(=O)C(NC(=O)C(C)C)CCCNC(=O)Nc3cc(OS(=O)(=O)O)c(OS(=O)(=O)O)cc3C[C@@H](C(=O)NC(C(C)C)C(=O)OC2C)N(C)C(=O)C(Cc2ccccc2)N2C(=O)[C@H](CC[C@H]2O)NC1=O (some centres unmarked) [FR134043, WS7622A disulfate ester disodium salt] | FK706·0.1%>FK706·0.02%>FR134043·0.2%=FR134043·0.02% | FK706·0.2%>FK706·0.02%>FR134043·0.2%=FR134043·0.02% | FK706·0.2%>FK706·0.02%>FR134043·0.2%>FR134043·0.02% | FK706·0.2%=FK706·0.02%>FR134043·0.2%=FR134043 0.02% |  |  |  |  |  |  |  | Soluble: water, methanol; also recorded: Insoluble: chloroform, n-hexane | 
3 | WS7622A disulfate ester dipotassium salt |  |  |  |  |  |  |  |  |  |  |  |  | Soluble: water, methanol; also recorded: Insoluble: chloroform, n-hexane

From patent US6610748B1, “Preventives/remedies for skin aging” (Fujisawa Pharmaceutical Co., Ltd., priority 1998, dated 2003)
